Measurements reported in patent publication US7524846B2, “Arylalkyl- and cycloalkylalkyl-piperazine derivatives and methods of their use” (Wyeth, priority 2003, dated 2009).
Counter-ions that a name gives are not always drawn.

Target: T1, hNET (Homo sapiens, UniProt P23975)
T1 construct: expressed in transfected cells; host or cells: MDCK-Net6 (MDCK cells stably transfected with hNET)
Assay: Norepinephrine (NE) uptake assay in MDCK-Net6 cells
Type: cell-based
Conditions: [3H]NE uptake, MDCK-Net6 cells stably transfected with human hNET; for inhibition at 1 µM: 1 μM test compound; for EC50: test range 1 to 10,000 nM
Experimental: MDCK-Net6 cells, stably transfected with human hNET (Pacholczyk, T., R. D. Blakely, and S. G. Amara, Nature, 1991, 350(6316): p. 350-4) were cultured in growth medium containing high glucose DMEM (Gibco, Cat. No. 11995), 10% FBS (dialyzed, heat-inactivated, US Bio-Technologies, Lot FBD1129HI) and 500 μg/ml G418 (Gibco, Cat. No. 10131). Cells were plated at 300,000/T75 flask and cells were split twice weekly. The JAR cell line (human placental choriocarcinoma) was purchased from ATCC (Cat. No. HTB-144). The cells were cultured in growth medium containing RPMI 1640 (Gibco, Cat. No. 72400), 10% FBS (Irvine, Cat. No. 3000), 1% sodium pyruvate (Gibco, Cat. No. 1136) and 0.25% glucose. Cells were plated at 250,000 cells/T75 flask and split twice weekly. For all assays, cells were plated in Wallac 96-well sterile plates (PerkinElmer, Cat. No. 3983498).
On day 1, cells were plated at 3,000 cells/well in growth medium and maintained in a cell incubator (37° C., 5% CO2). On day 2, growth medium was replaced with 200 μl of assay buffer (25 mM HEPES; 120 mM NaCl; 5 mM KCl; 2.5 mM CaCl2; 1.2 mM MgSO4; 2 mg/ml glucose (pH 7.4, 37° C.)) containing 0.2 mg/ml ascorbic acid and 10 μM pargyline. Plates containing cells with 200 μl of assay buffer were equilibrated for 10 minutes at 37° C. prior to addition of compounds. A stock solution of desipramine was prepared in DMSO (10 mM) and delivered to triplicate wells containing cells for a final test concentration of 1 μM. Data from these wells were used to define non-specific NE uptake (minimum NE uptake). Test compounds were prepared in DMSO (10 mM) and diluted in assay buffer according to test range (1 to 10,000 nM). Twenty-five microliters of assay buffer (maximum NE uptake) or test compound were added directly to triplicate wells containing cells in 200 μl of assay buffer. The cells in assay buffer with test compounds were incubated for 20 minutes at 37° C. To initiate the NE uptake, [^3H]NE diluted in assay buffer (120 nM final assay concentration) was delivered in 25 μl aliquots to each well and the plates were incubated for 5 minutes (37° C.). The reaction was terminated by decanting the supernatant from the plate. The plates containing cells were washed twice with 200 μl assay buffer (37° C.) to remove free radioligand. The plates were then inverted, left to dry for 2 minutes, then reinverted and air-dried for an additional 10 minutes. The cells were lysed in 25 μl of 0.25 N NaOH solution (4° C.), placed on a shake table and vigorously shaken for 5 minutes. After cell lysis, 75 μl of scintillation cocktail was added to each well and the plates were sealed with film tape. The plates were returned to the shake table and vigorously shaken for a minimum of 10 minutes to ensure adequate partitioning of organic and aqueous solutions. The plates were counted in a Wallac Microbeta counter (PerkinElmer) to collect the raw cpm data.
For each experiment, a data stream of cpm values collected from the Wallac Microbeta counter was downloaded to a Microsoft Excel statistical application program. Calculations of EC50 values were made using the transformed-both-sides logistic dose response program written by Wyeth Biometrics Department. The statistical program uses mean cpm values from wells representing maximum binding or uptake (assay buffer) and mean cpm values from wells representing minimum binding or uptake ((1 μM desipramine (hNET) or 1 μM paroxetine (hSERT)). Estimation of the EC50 value was completed on a log scale and the line was fit between the maximum and minimum binding or uptake values. All graphic data representation was generated by normalizing each data point to a mean percent based on the maximum and minimum binding or uptake values. The EC50 values reported from multiple experiments were calculated by pooling the raw data from each experiment and analyzing the pooled data as one experiment.

T1 sequence (P23975 whole entry): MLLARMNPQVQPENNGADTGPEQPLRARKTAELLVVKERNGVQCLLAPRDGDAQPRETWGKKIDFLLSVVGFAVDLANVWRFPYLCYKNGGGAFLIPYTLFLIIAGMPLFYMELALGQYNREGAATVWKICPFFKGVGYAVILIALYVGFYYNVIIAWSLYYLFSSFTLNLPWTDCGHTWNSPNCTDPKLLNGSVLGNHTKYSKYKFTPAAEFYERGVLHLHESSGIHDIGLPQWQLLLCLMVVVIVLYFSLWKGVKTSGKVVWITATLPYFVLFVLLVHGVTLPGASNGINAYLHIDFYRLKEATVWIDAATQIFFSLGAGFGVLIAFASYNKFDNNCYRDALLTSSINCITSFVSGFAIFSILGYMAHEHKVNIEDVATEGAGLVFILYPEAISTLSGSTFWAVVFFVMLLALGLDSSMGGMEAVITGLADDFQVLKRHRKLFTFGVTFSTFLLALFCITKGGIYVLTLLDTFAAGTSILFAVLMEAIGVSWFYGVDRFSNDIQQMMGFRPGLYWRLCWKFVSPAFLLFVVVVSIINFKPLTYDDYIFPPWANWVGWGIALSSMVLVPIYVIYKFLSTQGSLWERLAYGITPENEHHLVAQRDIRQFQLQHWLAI

## COc1ccc2cc(CN3CCN(CC(c4cccc(Cl)c4)C4(O)CCCCC4)CC3)ccc2c1 (stereo not drawn) [Example 117, 1-(1-(3-chlorophenyl)-2-{4-[(6-methoxy-2-naphthyl)methyl]piperazin-1-yl}ethyl)cyclohexanol dihydrochloride]
  inhibition at 1 µM: 87%
  EC50: 0.061 µM

## OC1(C(CN2CCN(CC3CC3)CC2)c2cccc(Cl)c2)CCCCC1 (stereo not drawn) [Example 118, 1-{1-(3-chlorophenyl)-2-[4-(cyclopropylmethyl)piperazin-1-yl]ethyl}cyclohexanol dihydrochloride]
  inhibition at 1 µM: 97%
  EC50: 0.057 µM

## OC1(C(CN2CCN(CC3CC=CCC3)CC2)c2cccc(Cl)c2)CCCCC1 (stereo not drawn) [Example 119, 1-{1-(3-chlorophenyl)-2-[4-(cyclohex-3-en-1-ylmethyl)piperazin-1-yl]ethyl}cyclohexanol dihydrochloride]
  inhibition at 1 µM: 97%
  EC50: 0.11 µM

## OC1CCCC(CN2CCN(CC(c3cccc(Cl)c3)C3(O)CCCCC3)CC2)O1 (stereo not drawn) [Example 120, 6-({4-[2-(3-chlorophenyl)-2-(1-hydroxycyclohexyl)ethyl]piperazin-1-yl}methyl)tetrahydro-2H-pyran-2-ol dihydrochloride]
  inhibition at 1 µM: 97%
  EC50: 0.13 µM

## CC(CCN1CCN(CC(c2cccc(Cl)c2)C2(O)CCCCC2)CC1)c1ccccc1 (stereo not drawn) [Example 121, 1-{1-(3-chlorophenyl)-2-[4-(3-phenylbutyl)piperazin-1-yl]ethyl}cyclohexanol dihydrochloride]
  inhibition at 1 µM: 97%
  EC50: 0.022 µM

## OC1(C(CN2CCN(CCc3ccccc3)CC2)c2cccc(Cl)c2)CCCCC1 (stereo not drawn) [Example 122, 1-{1-(3-chlorophenyl)-2-[4-(2-phenylethyl)piperazin-1-yl]ethyl}cyclohexanol dihydrochloride]
  inhibition at 1 µM: 96%
  EC50: 0.075 µM

## OC1(C(CN2CCN(Cc3cccc(Oc4ccccc4)c3)CC2)c2cccc(Cl)c2)CCCCC1 (stereo not drawn) [Example 123, 1-{1-(3-chlorophenyl)-2-[4-(3-phenoxybenzyl)piperazin-1-yl]ethyl}cyclohexanol dihydrochloride]
  inhibition at 1 µM: 96%
  EC50: 0.29 µM

## OC1(C(CN2CCN(Cc3ccc4ccccc4c3)CC2)c2cccc(Cl)c2)CCCCC1 (stereo not drawn) [Example 124, 1-{1-(3-chlorophenyl)-2-[4-(2-naphthylmethyl)piperazin-1-yl]ethyl}cyclohexanol dihydrochloride]
  inhibition at 1 µM: 94%
  EC50: 0.19 µM

## OC1(C(CN2CCN(Cc3ccoc3)CC2)c2cccc(Cl)c2)CCCCC1 (stereo not drawn) [Example 125, 1-{1-(3-chlorophenyl)-2-[4-(3-furylmethyl)piperazin-1-yl]ethyl}cyclohexanol dihydrochloride]
  inhibition at 1 µM: 93%
  EC50: 0.12 µM

## OC1(C(CN2CCN(CC3CCCCC3)CC2)c2cccc(Cl)c2)CCCCC1 (stereo not drawn) [Example 126, 1-{1-(3-chlorophenyl)-2-[4-(cyclohexylmethyl)piperazin-1-yl]ethyl}cyclohexanol dihydrochloride]
  inhibition at 1 µM: 93%
  EC50: 0.13 µM

## OC1(C(CN2CCN(Cc3ccnc4ccccc34)CC2)c2cccc(Cl)c2)CCCCC1 (stereo not drawn) [Example 127, 1-{1-(3-chlorophenyl)-2-[4-(quinolin-4-ylmethyl)piperazin-1-yl]ethyl}cyclohexanol dihydrochloride]
  inhibition at 1 µM: 86%
  EC50: 0.092 µM

## CCc1ccc(CN2CCN(CC(c3cccc(Cl)c3)C3(O)CCCCC3)CC2)o1 (stereo not drawn) [Example 128, 1-(1-(3-chlorophenyl)-2-{4-[(5-ethyl-2-furyl)methyl]piperazin-1-yl}ethyl)cyclohexanol dihydrochloride]
  inhibition at 1 µM: 83%
  EC50: 0.49 µM

## CC(CN1CCN(CC(c2cccc(Cl)c2)C2(O)CCCCC2)CC1)c1ccccc1 (stereo not drawn) [Example 129, 1-{1-(3-chlorophenyl)-2-[4-(2-phenylpropyl)piperazin-1-yl]ethyl}cyclohexanol dihydrochloride]
  inhibition at 1 µM: 81%
  EC50: 0.43 µM

## OC1(C(CN2CCN(Cc3cc4ccccc4o3)CC2)c2cccc(Cl)c2)CCCCC1 (stereo not drawn) [Example 130, 1-[2-[4-(1-benzofuran-2-ylmethyl)piperazin-1-yl]-1-(3-chlorophenyl)ethyl]cyclohexanol dihydrochloride]
  inhibition at 1 µM: 79%
  EC50: 0.89 µM

## OC1(C(CN2CCN(Cc3ccc(OCc4ccccc4)cc3)CC2)c2cccc(Cl)c2)CCCCC1 (stereo not drawn) [Example 131, 1-[2-{4-[4-(benzyloxy)benzyl]piperazin-1-yl}-1-(3-chlorophenyl)ethyl]cyclohexanol dihydrochloride]
  inhibition at 1 µM: 78%
  EC50: 0.17 µM

## OC1(C(CN2CCN(Cc3ccc(Oc4ccccc4)cc3)CC2)c2cccc(Cl)c2)CCCCC1 (stereo not drawn) [Example 132, 1-{1-(3-chlorophenyl)-2-[4-(4-phenoxybenzyl)piperazin-1-yl]ethyl}cyclohexanol dihydrochloride]
  inhibition at 1 µM: 77%
  EC50: 0.07 µM

## OC1(C(CN2CCN(Cc3ccncc3)CC2)c2cccc(Cl)c2)CCCCC1 (stereo not drawn) [Example 133, 1-{1-(3-chlorophenyl)-2-[4-(pyridin-4-ylmethyl)piperazin-1-yl]ethyl}cyclohexanol dihydrochloride]
  inhibition at 1 µM: 77%
  EC50: 0.46 µM

## OC1(C(CN2CCN(Cc3cccnc3)CC2)c2cccc(Cl)c2)CCCCC1 (stereo not drawn) [Example 134, 1-{1-(3-chlorophenyl)-2-[4-(pyridin-3-ylmethyl)piperazin-1-yl]ethyl}cyclohexanol dihydrochloride]
  inhibition at 1 µM: 69%
  EC50: 0.93 µM
